Experimental data taken from patent US20240124410A1, “SMALL MOLECULES AND THEIR USE AS MALT1 INHIBITORS” (University of Pittsburgh - Of the Commonwealth System of …, priority 2021, published 2024).

What was measured:
[1] = target: T1, nAChR(a4/b2) (Homo sapiens, UniProt P17787+P43681); assay: Eurofins SAFETYscan 78-target panel, off-target effects, nAChR(a4/b2); type: biochemical; conditions: antagonist / blocker / inhibitor mode
T1 construct: Eurofins
Procedure: FIG. 9. Table summarizing the Eurofins analysis of potential off-target effects of M1i-124. […] values above 10 μM are generally considered to be acceptable. FIG. 10. Representative hematoxylin and eosin (H&E) staining of organ sections (lung, heart, kidney, liver and adrenal) from control and M1i-124 treated mice described in FIG. 6.
Studies were performed using the services of Touchstone Biosciences and Eurofins Pharma Discovery Services. […] All blood samples (30-50 ul per sample) were taken via tail vein at 5, 15, and 30 minutes, and 1, 2, 4, 6, 8, and 24 hours after dosing. Blood samples are collected in Greiner MiniCollect K2 EDTA tubes, placed on ice, and within 30 minutes, centrifuged at 15,000 g for 5 minutes to obtain plasma samples. All plasma samples are stored at −70° C. until analysis. Plasma samples were prepared for analysis by LC-MS/MS, and key PK parameters, including terminal half-life (t 112), initial plasma concentration (C0), area under the plasma concentration vs. time curve (AUC), volume of distribution at steady-state (Vss), total plasma clearance (CLp), and mean residence time (MRT), were measured.
Assay details are available through Eurofins.

[2] = tested on: IL-6 and IL-10 secretion in TMD8 cells; assay: IL-6 and IL-10 secretion by TMD8 cells (ELISA); type: cell-based, human
Procedure: Expression of cytokines from cell culture supernatants was measured 24h after treatment with 0, 0.01, 0.03, 0.1, 0.3, 1, or 3 uM of compounds using the following ELISA kits according to the manufacturer's instructions: Human IL-2 ELISA (BioLegend Cat #431804), Human IL-6 ELISA (BioLegend Cat #430504), and Human IL-10 ELISA (BioLegend Cat #430604).

[3] = tested on: T cell receptor (TCR)-induced phosphorylation of ERK; assay: Phosphorylation of ERK in Jurkat T cells (Western blot); type: cell-based; conditions: 20 hours pretreatment, anti-CD3/CD28 for 0-20 minutes
Procedure: The DLBCL cell lines, OCI-Ly1, OCI-Ly3, and OCI-Ly7, were provided by Dr. Mark Minden (University Health Network, Toronto, Ontario, Canada). TMD8 cells were provided by Dr. Louis Staudt (NCI, NIH). OCI-Ly1 and OCI-Ly7 cells were cultured in Iscove's Modified Dulbecco's Medium (IMDM) supplemented with 10% FBS. OCI-Ly3 cells were cultured in IMDM supplemented with 20% FBS. TMD8 and Jurkat T cells were cultured in RPMI1640 medium with 10% FBS. HEK293T cells were cultured in DMEM medium with 10% FBS. All media were supplemented with 100 U/ml penicillin streptomycin. Stimulation of Jurkat cells was conducted by adding 5 ng/ml of phorbol 12-myristatel3 acetate (PMA)(Sigma-Aldrich) and 1μM ionomycin (Calbiochem), or by adding 5-10 μL/mL of ImmunoCult Human CD3/CD28 ([…] Technologies).

T1 sequence (P43681 29-627 limits assumed): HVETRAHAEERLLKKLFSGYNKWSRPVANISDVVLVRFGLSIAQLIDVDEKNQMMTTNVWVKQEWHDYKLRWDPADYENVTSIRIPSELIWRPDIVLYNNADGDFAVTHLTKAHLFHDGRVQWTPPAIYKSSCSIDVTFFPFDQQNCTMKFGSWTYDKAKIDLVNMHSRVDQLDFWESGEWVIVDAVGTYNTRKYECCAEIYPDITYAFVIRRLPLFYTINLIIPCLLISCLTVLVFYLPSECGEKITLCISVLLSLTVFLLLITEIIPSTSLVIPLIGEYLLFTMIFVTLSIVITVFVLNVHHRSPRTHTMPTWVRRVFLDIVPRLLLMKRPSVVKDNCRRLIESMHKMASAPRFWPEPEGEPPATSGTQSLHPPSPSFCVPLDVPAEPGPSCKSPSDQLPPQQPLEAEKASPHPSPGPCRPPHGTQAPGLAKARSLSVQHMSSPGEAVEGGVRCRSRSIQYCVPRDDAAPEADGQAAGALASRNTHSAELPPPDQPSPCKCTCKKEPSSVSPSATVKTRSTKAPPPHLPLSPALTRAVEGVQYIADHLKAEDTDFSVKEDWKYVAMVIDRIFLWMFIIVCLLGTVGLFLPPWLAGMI
T1 sequence (P17787 26-502): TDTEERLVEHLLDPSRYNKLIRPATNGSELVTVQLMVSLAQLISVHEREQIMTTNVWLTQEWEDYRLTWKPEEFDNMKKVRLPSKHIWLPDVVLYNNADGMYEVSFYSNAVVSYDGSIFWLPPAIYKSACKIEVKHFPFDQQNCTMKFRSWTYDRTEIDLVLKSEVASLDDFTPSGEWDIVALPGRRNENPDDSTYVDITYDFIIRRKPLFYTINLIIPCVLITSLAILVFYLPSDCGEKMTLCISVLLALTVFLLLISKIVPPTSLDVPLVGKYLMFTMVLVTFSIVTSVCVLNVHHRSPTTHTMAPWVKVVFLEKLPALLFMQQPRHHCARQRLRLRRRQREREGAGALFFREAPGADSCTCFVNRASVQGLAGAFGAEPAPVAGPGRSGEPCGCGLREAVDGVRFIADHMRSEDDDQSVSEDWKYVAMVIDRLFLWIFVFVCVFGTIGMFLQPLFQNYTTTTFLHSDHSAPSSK

SMILES | IC50 [1] | IL-6 secretion [2] | IL-10 secretion [2] | Phosphorylation of ERK (phospho-ERK/total ERK) [3]
O=S(=O)(NCc1ccc2c(c1)OCO2)c1ccc(Cc2ccc(S(=O)(=O)NCc3ccc4c(c3)OCO4)cc2)cc1 [M1i-124] | 4 µM | – | – | –
COc1ccc(CNS(=O)(=O)c2ccc(Cc3ccc(S(=O)(=O)NCc4ccc(OC)cc4)cc3)cc2)cc1 [M1i-124d1] | – | inhibit IL-6 and IL-10 secretion in a concentration-dependent manner | inhibit IL-6 and IL-10 secretion in a concentration-dependent manner | Neither M1i-124 (F) or M1i-124d1 (G) inhibits
